These results are taken from patent US20220257621A1, “CANCER CELL PROLIFERATION SUPPRESSION AGENT AND COMPOSITION FOR SUPPRESSING PROLIFERATION OF CANCER CELLS” (SHOWA DENKO K.K., priority 2019, published 2022).

For one data set, the system named is ARNT gene. Briefly: Suppression of ARNT gene expression induced by atmospheric dust (quantitative real-time PCR). The format is cell-based, human. The settings on record: NHEK; sample 0.001% by mass 24 h, then atmospheric dust (NIST 1648a) 500 μg/mL 48 h; standardized to GAPDH; control without dust = 1; dust + water = 1.74. The procedure:
The effect of the inositol derivative on suppressing the expression of an ARNT gene in normal human epidermal keratinocytes (NHEK, manufactured by KURABO INDUSTRIES LTD.) was measured under the following conditions. The NHEK cells were seeded in a HuMedia KG2 medium manufactured by KURABO INDUSTRIES LTD. at the seeding density of 10000 cells/cm^2, and cultured for 24 hours under the conditions of 37° C. and 5% CO2. Next, an aqueous solution of the inositol derivative or an aqueous solution of myo-inositol was added to the culture medium so that the final concentration of the inositol derivative or myo-inositol was 0.001% by mass, or water (pure water) was added to the culture medium, and culturing was further performed for 24 hours. […] Using this cDNA as a template, the expression level of the ARNT gene was quantitatively determined by quantitative real-time PCR using a primer specific to the ARNT gene (Perfect Real Time Primer, manufactured by Takara Bio Inc.). As an internal standard gene, the expression level of GAPDH was quantitatively determined (primer used: Perfect Real Time Primer, manufactured by Takara Bio Inc.), and the expression level of the ARNT gene was standardized based on the expression level of GAPDH. […]
For orientation: In qPCR the cycle at which signal appears reflects the starting amount.

The test system of another data set is CYP1B1 gene. Briefly: Suppression of CYP1B1 gene expression induced by atmospheric dust (quantitative real-time PCR). The format is cell-based, human. The settings on record: NHEK; sample 0.001% by mass 24 h, then atmospheric dust (NIST 1648a) 500 μg/mL 48 h; standardized to GAPDH; control without dust = 1; dust + water = 4.30. The procedure:
The effect of the inositol derivative on suppressing the expression of a CYP1A1 gene and a CYP1B1 gene in normal human epidermal keratinocytes (NHEK, manufactured by KURABO INDUSTRIES LTD.) was measured under the following conditions.
The NHEK cells were seeded in a HuMedia KG2 medium manufactured by KURABO INDUSTRIES LTD. at the seeding density of 10000 cells/cm^2, and cultured for 24 hours under the conditions of 37° C. and 5% CO2. […] Using this cDNA as a template, the expression levels of the CYP1A1 gene and the CYP1B1 gene were quantitatively determined by quantitative real-time PCR using primers (QuantiTect Primer Assays, manufactured by QIAGEN) specific to the CYP1A1 gene and the CYP1B1 gene. As an internal standard gene, the expression level of a GAPDH gene, which is a housekeeping gene in which expression fluctuation due to the addition of atmospheric dust is not shown, was quantitatively determined (primer used: Perfect Real Time Primer, manufactured by Takara Bio Inc.), and the expression levels of the CYP1A1 gene and the CYP1B1 gene were standardized based on the expression level of GAPDH. […]

The subject of data set [1] is cell line derived from Lewis lung carcinoma (LLC). The data set can be described thus: Effect of suppressing invasion of cancer cells (CytoSelect invasion assay kit). Type of data set: cell-based. The settings on record: sample 0.001% by mass 24 h, then atmospheric dust 500 μg/mL 6 h + 18 h, fluorescence relative to control without dust = 1, dust + water = 1.67. The procedure:
The effect of the inositol derivative on suppressing the invasion of cancer in a cell line derived from Lewis lung carcinoma (LLC, JCRB Cell Bank) was measured under the following conditions. A CytoSelect invasion assay kit manufactured by Cell Biolabs, Inc. was used for a test. The LLC cells were seeded in a chamber plate for invasion tests attached to the above-mentioned invasion assay kit so that the concentration was 100000 cells/mL using a culture medium in which a Ham F10 medium and an L15 medium (both manufactured by Sigma-Aldrich) were mixed at the ratio of 3:7 (volume ratio), and cultured for 24 hours under the conditions of 37° C. and 5% CO2. Next, an aqueous solution of the inositol derivative or an aqueous solution of myo-inositol was added to the culture medium so that the final concentration of the inositol derivative or myo-inositol was 0.001% by mass, or water (pure water) was added to the culture medium, and culturing was further performed for 24 hours. […] Thereafter, the cells were stained using the above-mentioned invasion assay kit, and the fluorescence intensity at an excitation wavelength of 480 nm/an absorption wavelength of 570 nm was measured with a microplate reader i-Control (manufactured by Tecan Group Ltd.). […]

Take `O[C@H]1[C@H](O)[C@@H](O)[C@H](O)[C@@H](O)[C@H]1O` [myo-Inositol, myo-inositol]: in the data set with ARNT gene, the “Relative gene expression level ARNT” value is on record as 1.85. Also, the “Relative gene expression level CYP1B1” value in the data set on CYP1B1 gene came out at 1.08. For the same compound, in data set [1], the Relative cell invasion is on record as 1.53.
